Laboratory results: patent publication US8513248B2, “5,6,7,8-tetrahydroimidazo[1,2-A]pyrazine derivatives as P2X7 modulators” (Glaxo Group Limited, priority 2009, dated 2013)
Counter-ions that a name gives are not always drawn.

What was measured:
[1] = target: T1, human recombinant P2X7 receptors (Homo sapiens, UniProt Q99572); experiment: Ethidium Accumulation Assay 1; format: cell-based; conditions: HEK293 cells stably expressing human recombinant P2X7; 1 mM ATP; ethidium 100 μM; read-out: Assay 1 (antagonist pIC50 for blocking ATP responses, ethidium accumulation) (converted)
T1 construct: expressed in transfected cells
T1 sequence (Q99572 1-595): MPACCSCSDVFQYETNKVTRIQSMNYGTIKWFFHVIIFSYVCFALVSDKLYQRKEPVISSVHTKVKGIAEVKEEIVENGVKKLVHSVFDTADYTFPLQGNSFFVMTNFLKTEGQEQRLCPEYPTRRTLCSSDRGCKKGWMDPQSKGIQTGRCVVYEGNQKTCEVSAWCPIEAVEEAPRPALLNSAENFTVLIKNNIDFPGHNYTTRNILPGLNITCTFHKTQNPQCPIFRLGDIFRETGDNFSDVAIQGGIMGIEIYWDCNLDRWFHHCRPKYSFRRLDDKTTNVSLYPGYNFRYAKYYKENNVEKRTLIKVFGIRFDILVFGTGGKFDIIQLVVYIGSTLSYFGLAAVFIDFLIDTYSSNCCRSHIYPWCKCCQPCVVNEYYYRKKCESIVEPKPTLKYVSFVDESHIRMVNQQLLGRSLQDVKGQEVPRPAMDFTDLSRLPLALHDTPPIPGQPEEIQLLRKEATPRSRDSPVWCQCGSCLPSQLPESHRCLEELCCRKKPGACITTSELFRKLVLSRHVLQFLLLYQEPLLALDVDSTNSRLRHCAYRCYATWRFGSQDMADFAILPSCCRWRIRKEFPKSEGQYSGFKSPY
Protocol: Studies were performed using NaCl assay buffer of the following composition: 140 mM NaCl, 10 mM HEPES [4-(2-hydroxyethyl)-1-piperazine-1-ethanesulfonic acid], 5 mM N-methyl-D-glucamine, 5.6 mM KCl, 10 mM D-glucose, 0.5 mM CaCl2 (pH 7.4).
Human Embryonic Kidney (HEK) 293 cells, stably expressing human recombinant P2X7 receptors, were grown in poly-D-lysine pretreated 96 well plates for 18-24 hours. […] The cells were washed twice with 350 μl of the assay buffer, before addition of 50 μl of the assay buffer containing the putative P2X7 receptor antagonist compound. (A small amount of dimethyl sulfoxide, for initially dissolving the compound, is optionally used and present in this […] test compound sample.) The cells were then incubated at room temperature (19-21° C.) for 30 min before addition of ATP and ethidium (100 μM final assay concentration). The ATP concentration was chosen to be close to the EC80 for the receptor type and was 1 mM for studies on the human P2X7 receptor. Incubations were continued for 8 or 16 min and were terminated by addition of 25 μl of 1.3M sucrose containing 4 mM of the P2X7 receptor antagonist Reactive Black 5 (Aldrich). […] Antagonist pIC50 values for blocking ATP responses were determined using iterative curve fitting techniques.

[2] = target: T1, human recombinant P2X7 receptors; experiment: Ethidium Accumulation Assay 2; format: cell-based; conditions: HEK293 cells stably expressing human recombinant P2X7; ATP solution with ethidium bromide; 16 min incubation; read-out: Assay 2 (antagonist pIC50 for blocking ATP responses, ethidium accumulation) (converted)
Protocol: Human Embryonic Kidney (HEK) 293 cells, stably expressing human recombinant P2X7 receptors, were grown in poly-D-lysine pretreated 96 well plates for 24 hours at 37° C.
The cells were washed with assay buffer (100 μL), before addition of 25 μL of assay buffer and then 25 ul of assay buffer containing the putative P2X7 receptor antagonist compound. The cells were then incubated at room temperature (19-21° C.) for 30 min before addition of ATP solution (50 μM). […] Antagonist pIC50 values for blocking ATP responses were determined using iterative curve fitting techniques.

Structure (SMILES) | IC50 [1] [nM] | IC50 [2] [nM]
O=C(c1cccc(C(F)(F)F)c1Cl)N1CCn2cc(C(F)(F)F)nc2C1 [Example 2, 7-{[2-Chloro-3-(trifluoromethyl)phenyl]carbonyl}-2-(trifluoromethyl)-5,6,7,8-tetrahydroimidazo[1,2-a]pyrazine] | < 100 | < 100
O=C(c1cccc(C(F)(F)F)c1Cl)N1CCn2c(Br)cnc2C1 [Example 18, 3-Bromo-7-{[2-chloro-3-(trifluoromethyl)phenyl]carbonyl}-5,6,7,8-tetrahydroimidazo[1,2-a]pyrazine hydrochloride] | < 10 | 
O=C(c1cccc(C(F)(F)F)c1Cl)N1CCn2c(-c3cccc(C(F)(F)F)c3Cl)cnc2C1 [Example 24, 3-[2-chloro-3-(trifluoromethyl)phenyl]-7-{[2-chloro-3-(trifluoromethyl)phenyl]carbonyl}-5,6,7,8-tetrahydroimidazo[1,2-a]pyrazine hydrochloride] | < 1000 | 
O=C(c1cccc(C(F)(F)F)c1Cl)N1CCn2c(-c3cnccn3)cnc2C1 [Example 38, 7-{[2-chloro-3-(trifluoromethyl)phenyl]carbonyl}-3-(2-pyrazinyl)-5,6,7,8-tetrahydroimidazo[1,2-a]pyrazine] | < 10 | 
O=C(c1cccc(C(F)(F)F)c1Cl)N1CCn2c(nc(C(F)(F)F)c2Br)C1 [Example 19, 3-Bromo-7-{[2-chloro-3-(trifluoromethyl)phenyl]carbonyl}-2-(trifluoromethyl)-5,6,7,8-tetrahydroimidazo[1,2-a]pyrazine] | < 10 | 
O=C(c1cccc(C(F)(F)F)c1Cl)N1CCn2ccnc2C1 [Example 1, 7-{[2-Chloro-3-(trifluoromethyl)phenyl]carbonyl}-5,6,7,8-tetrahydroimidazo[1,2-a]pyrazine] | < 100 | < 100
O=C(c1ccc(Cl)cc1Cl)N1CCn2cc(C(F)(F)F)nc2C1 [Example 3, 7-[(2,4-Dichlorophenyl)carbonyl]-2-(trifluoromethyl)-5,6,7,8-tetrahydroimidazo[1,2-a]pyrazine] | < 1000 | 
Cc1cn2c(n1)CN(C(=O)c1cccc(Cl)c1Cl)CC2 [Example 12, 7-[(2,3-dichlorophenyl)carbonyl]-2-methyl-5,6,7,8-tetrahydroimidazo[1,2-a]pyrazine] | < 501 | 
O=C(c1cccc(C(F)(F)F)c1Cl)N1CCn2cc(-c3ccccc3)nc2C1 [Example 14, 7-{[2-chloro-3-(trifluoromethyl)phenyl]carbonyl}-2-phenyl-5,6,7,8-tetrahydroimidazo[1,2-a]pyrazine hydrochloride] | < 501 | 
O=C(c1cccc(C(F)(F)F)c1Cl)N1CCn2c(-c3cscn3)cnc2C1 [Example 42, 7-{[2-chloro-3-(trifluoromethyl)phenyl]carbonyl}-3-(1,3-thiazol-4-yl)-5,6,7,8-tetrahydroimidazo[1,2-a]pyrazine] | < 10 | 
Cc1cnc2n1CCN(C(=O)c1cccc(C(F)(F)F)c1Cl)C2 [Example 27, 7-{[2-Chloro-3-(trifluoromethyl)phenyl]carbonyl}-3-methyl-5,6,7,8-tetrahydroimidazo[1,2-a]pyrazine hydrochloride] | < 100 | < 100
O=C(c1cccc(C(F)(F)F)c1Cl)N1CCn2c(nc(I)c2I)C1 [Example 20, 7-{[2-chloro-3-(trifluoromethyl)phenyl]carbonyl}-2,3-diiodo-5,6,7,8-tetrahydroimidazo[1,2-a]pyrazine] | < 10 | 

More lines, now with the values ahead:

IC50 [1] [nM] | IC50 [2] [nM] | Structure (SMILES)
< 501 |  | O=C(c1ccc(Cl)cc1Cl)N1CCn2c(Cl)cnc2C1 [Example 44, 3-chloro-7-[(2,4-dichlorophenyl)carbonyl]-5,6,7,8-tetrahydroimidazo[1,2-a]pyrazine]
< 100 |  | Cc1ccccc1-c1cnc2n1CCN(C(=O)c1cccc(C(F)(F)F)c1Cl)C2 [Example 28, 7-{[2-Chloro-3-(trifluoromethyl)phenyl]carbonyl}-3-(2-methylphenyl)-5,6,7,8-tetrahydroimidazo[1,2-a]pyrazine hydrochloride]
< 100 |  | O=C(c1ccc(Cl)cc1Cl)N1CCn2c(-c3ccccc3)cnc2C1 [Example 5, 7-[(2,4-dichlorophenyl)carbonyl]-3-phenyl-5,6,7,8-tetrahydroimidazo[1,2-a]pyrazine hydrochloride]
< 100 |  | O=C(c1ccc(Cl)cc1Cl)N1CCn2c(nc(Cl)c2Cl)C1 [Example 29, 2,3-dichloro-7-[(2,4-dichlorophenyl)carbonyl]-5,6,7,8-tetrahydroimidazo[1,2-a]pyrazine]
< 10 |  | O=C(c1ccc(F)cc1Cl)N1CCn2c(-c3cnccn3)cnc2C1 [Example 37, 7-[(2-chloro-4-fluorophenyl)carbonyl]-3-(2-pyrazinyl)-5,6,7,8-tetrahydroimidazo[1,2-a]pyrazine]
< 501 |  | O=C(c1ccc(Cl)cc1Cl)N1CCn2c(nc(C(F)(F)F)c2-c2ccc(F)cc2)C1 [Example 36, 7-[(2,4-dichlorophenyl)carbonyl]-3-(4-fluorophenyl)-2-(trifluoromethyl)-5,6,7,8-tetrahydroimidazo[1,2-a]pyrazine]
